Literature values as cited in patent publication US11589577B2, “Nanotechnology system for agricultural applications” (priority 2012, dated 2023).

Conditions: binds soil ions; stated as known issue

Substance: abamectin
- soil mobility (general statement): poor soil mobility
